Results published in ChEMBL document CHEMBL5055685, “Discovery of the First Potent IDO1/IDO2 Dual Inhibitors: A Promising Strategy for Cancer Immunotherapy” (J Med Chem, 2021).
Calls of active or inactive are those of the source. No cut-off for these calls is given here.

Tests used:
CT26 = assay: Cytotoxicity against mouse CT26 cells assessed as reduction in cell viability by CCK8 assay; type: functional, cell-based
[1] = Cmax in Sprague-Dawley rat at 50 mg/kg, po; type: ADME, organism-based; set-up: dose 50 mg/kg, route po; settings: in vivo
[2] = Metabolic stability in dog liver microsomes assessed as rate constant; type: ADME, Canis lupus familiaris, Microsome
[3] = Half life in dog liver microsomes assessed as rate constant; type: ADME, Canis lupus familiaris, Microsome
[4] = Clearance in dog liver microsomes; type: ADME, Canis lupus familiaris, Microsome; settings: read-out: CLH
[5] = Half life in rat liver microsomes; type: ADME, Microsome
[6] = Metabolic stability in mouse liver microsomes assessed as rate constant; type: ADME, Microsome
[7] = Protein binding in Beagle dog plasma by equilibrium dialysis; type: ADME, cell-free, Canis lupus familiaris; settings: read-out: PPB (converted)
Mus musculus = assay: In vivo inhibition of IDO2 in BALB/c mouse xenografted with human HCT-116 cells assessed as suppression of IDO2 mRNA expression in tumor by quantitative RT-PCR analysis; type: functional, organism-based
[8] = molecular target: Tyrosine-protein kinase ABL2 (Homo sapiens) (UniProt P42684); assay: Inhibition of ABL2 (unknown origin) at 1 uM
Chain of Tyrosine-protein kinase ABL2 (Homo sapiens) (P42684 whole entry): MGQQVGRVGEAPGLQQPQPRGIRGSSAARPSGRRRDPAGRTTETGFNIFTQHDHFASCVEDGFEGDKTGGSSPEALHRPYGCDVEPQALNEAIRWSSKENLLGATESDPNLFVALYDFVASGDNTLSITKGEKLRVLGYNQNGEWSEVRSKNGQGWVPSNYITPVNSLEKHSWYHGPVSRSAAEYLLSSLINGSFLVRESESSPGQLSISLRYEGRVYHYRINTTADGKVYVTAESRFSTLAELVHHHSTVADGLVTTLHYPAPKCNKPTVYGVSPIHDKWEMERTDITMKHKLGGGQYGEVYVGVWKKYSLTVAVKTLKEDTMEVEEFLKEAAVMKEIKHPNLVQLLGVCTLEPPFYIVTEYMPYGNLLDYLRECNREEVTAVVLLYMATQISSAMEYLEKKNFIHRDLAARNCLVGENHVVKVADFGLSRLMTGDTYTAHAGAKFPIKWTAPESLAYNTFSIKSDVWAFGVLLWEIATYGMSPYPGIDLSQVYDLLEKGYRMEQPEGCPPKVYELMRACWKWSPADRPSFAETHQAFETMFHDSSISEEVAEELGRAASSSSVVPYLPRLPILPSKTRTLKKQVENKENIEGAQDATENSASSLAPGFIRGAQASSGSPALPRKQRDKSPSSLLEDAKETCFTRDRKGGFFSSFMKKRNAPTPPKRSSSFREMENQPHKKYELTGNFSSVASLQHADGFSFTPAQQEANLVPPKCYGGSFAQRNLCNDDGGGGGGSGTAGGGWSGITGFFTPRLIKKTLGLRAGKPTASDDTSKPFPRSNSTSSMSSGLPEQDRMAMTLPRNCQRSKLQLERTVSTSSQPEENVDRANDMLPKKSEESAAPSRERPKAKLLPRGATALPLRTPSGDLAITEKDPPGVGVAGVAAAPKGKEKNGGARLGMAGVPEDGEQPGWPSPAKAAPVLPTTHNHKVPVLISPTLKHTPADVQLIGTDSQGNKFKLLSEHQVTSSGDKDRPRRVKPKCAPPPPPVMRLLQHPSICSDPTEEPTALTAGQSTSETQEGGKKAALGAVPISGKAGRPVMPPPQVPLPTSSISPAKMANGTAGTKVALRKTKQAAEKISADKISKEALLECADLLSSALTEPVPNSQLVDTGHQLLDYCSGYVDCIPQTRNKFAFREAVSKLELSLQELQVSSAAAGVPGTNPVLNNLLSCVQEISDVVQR

[9] = molecular target: Activin receptor type-1B (Homo sapiens) (UniProt P36896); assay: Inhibition of ALK4 (unknown origin) at 1 uM
Chain of Activin receptor type-1B (Homo sapiens) (P36896 whole entry): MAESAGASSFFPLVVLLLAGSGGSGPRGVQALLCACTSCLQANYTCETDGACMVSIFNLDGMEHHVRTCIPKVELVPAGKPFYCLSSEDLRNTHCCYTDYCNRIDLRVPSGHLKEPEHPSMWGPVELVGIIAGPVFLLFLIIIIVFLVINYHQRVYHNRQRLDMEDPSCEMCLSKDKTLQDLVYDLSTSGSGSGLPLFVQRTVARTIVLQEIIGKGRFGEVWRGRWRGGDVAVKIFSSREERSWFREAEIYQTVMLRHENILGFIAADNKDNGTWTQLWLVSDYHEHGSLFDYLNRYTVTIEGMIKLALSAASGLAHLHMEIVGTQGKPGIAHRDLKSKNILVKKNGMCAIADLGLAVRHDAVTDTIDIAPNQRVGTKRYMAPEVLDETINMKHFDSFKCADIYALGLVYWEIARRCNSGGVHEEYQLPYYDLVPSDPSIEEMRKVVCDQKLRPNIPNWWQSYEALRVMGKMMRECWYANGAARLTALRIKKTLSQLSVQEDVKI

[10] = molecular target: Aurora kinase C (Homo sapiens) (UniProt Q9UQB9); assay: Inhibition of Aurora C (unknown origin) at 1 uM
[11] = molecular target: Bone morphogenetic protein receptor type-2 (Homo sapiens) (UniProt Q13873); assay: Inhibition of BMPR2 (unknown origin) at 1 uM
[12] = molecular target: Protein-tyrosine kinase 6 (Homo sapiens) (UniProt Q13882); assay: Inhibition of BRK (unknown origin) at 1 uM
Chain of Protein-tyrosine kinase 6 (Homo sapiens) (Q13882 whole entry, looked up): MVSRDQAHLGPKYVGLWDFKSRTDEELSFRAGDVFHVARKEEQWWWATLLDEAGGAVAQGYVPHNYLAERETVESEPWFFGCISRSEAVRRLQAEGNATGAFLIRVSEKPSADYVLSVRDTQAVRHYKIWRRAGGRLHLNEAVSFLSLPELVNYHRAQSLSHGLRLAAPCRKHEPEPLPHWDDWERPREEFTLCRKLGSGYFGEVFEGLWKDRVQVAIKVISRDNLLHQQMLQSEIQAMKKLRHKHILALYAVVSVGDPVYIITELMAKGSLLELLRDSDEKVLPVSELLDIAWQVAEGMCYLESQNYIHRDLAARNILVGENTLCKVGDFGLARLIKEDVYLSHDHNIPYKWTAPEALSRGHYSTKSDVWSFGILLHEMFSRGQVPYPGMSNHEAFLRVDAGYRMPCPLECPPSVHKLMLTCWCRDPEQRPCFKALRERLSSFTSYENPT

[13] = molecular target: Calcium/calmodulin-dependent protein kinase type II subunit alpha (Homo sapiens) (UniProt Q9UQM7); assay: Inhibition of CAMK2A (unknown origin) at 1 uM
[14] = molecular target: Calcium/calmodulin-dependent protein kinase type II subunit beta (Homo sapiens) (UniProt Q13554); assay: Inhibition of CAMK2B (unknown origin) at 1 uM
[15] = molecular target: CDK3/Cyclin E (Homo sapiens) (UniProt P24864+Q00526); assay: Inhibition of CDK3/cyclin-E (unknown origin) at 1 uM; type: protein-complex assay
[16] = molecular target: Cyclin-dependent kinase 5/CDK5 activator 1 (Homo sapiens) (UniProt Q00535+Q15078); assay: Inhibition of CDK5/p35 (unknown origin) at 1 uM; type: protein-complex assay
[17] = molecular target: Dual specificity tyrosine-phosphorylation-regulated kinase 4 (Homo sapiens) (UniProt Q9NR20); assay: Inhibition of DYRK4 (unknown origin) at 1 uM
Chain of Dual specificity tyrosine-phosphorylation-regulated kinase 4 (Homo sapiens) (Q9NR20 whole entry): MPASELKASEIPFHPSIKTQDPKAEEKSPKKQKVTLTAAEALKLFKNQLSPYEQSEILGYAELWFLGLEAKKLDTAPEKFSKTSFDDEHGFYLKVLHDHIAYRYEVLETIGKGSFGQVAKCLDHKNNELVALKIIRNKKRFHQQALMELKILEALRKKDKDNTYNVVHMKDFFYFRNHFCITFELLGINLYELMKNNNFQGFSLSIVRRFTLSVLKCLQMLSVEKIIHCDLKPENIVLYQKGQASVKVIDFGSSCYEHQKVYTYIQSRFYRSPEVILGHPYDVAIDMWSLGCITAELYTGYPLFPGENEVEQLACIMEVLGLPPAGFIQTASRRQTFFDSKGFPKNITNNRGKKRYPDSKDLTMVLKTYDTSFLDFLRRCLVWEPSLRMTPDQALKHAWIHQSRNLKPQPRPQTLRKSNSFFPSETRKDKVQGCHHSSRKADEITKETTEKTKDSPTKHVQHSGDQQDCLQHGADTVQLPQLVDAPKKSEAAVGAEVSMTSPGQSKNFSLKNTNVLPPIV

[18] = molecular target: Mitogen-activated protein kinase 3 (Homo sapiens) (UniProt P27361); assay: Inhibition of ERK1 (unknown origin) at 1 uM
[19] = molecular target: G protein-coupled receptor kinase 5 (Homo sapiens) (UniProt P34947); assay: Inhibition of GRK5 (unknown origin) at 1 uM
[20] = molecular target: Inhibitor of nuclear factor kappa-B kinase subunit epsilon (Homo sapiens) (UniProt Q14164); assay: Inhibition of IKKepsilon (unknown origin) at 1 uM
[21] = molecular target: Interleukin-1 receptor-associated kinase 1 (Homo sapiens) (UniProt P51617); assay: Inhibition of IRAK1 (unknown origin) at 1 uM
[22] = molecular target: Serine/threonine-protein kinase STK11 (Homo sapiens) (UniProt Q15831); assay: Inhibition of LKB1 (unknown origin) at 1 uM
[23] = molecular target: Serine/threonine-protein kinase MAK (Homo sapiens) (UniProt P20794); assay: Inhibition of MAK (unknown origin) at 1 uM
Chain of Serine/threonine-protein kinase MAK (Homo sapiens) (P20794 whole entry): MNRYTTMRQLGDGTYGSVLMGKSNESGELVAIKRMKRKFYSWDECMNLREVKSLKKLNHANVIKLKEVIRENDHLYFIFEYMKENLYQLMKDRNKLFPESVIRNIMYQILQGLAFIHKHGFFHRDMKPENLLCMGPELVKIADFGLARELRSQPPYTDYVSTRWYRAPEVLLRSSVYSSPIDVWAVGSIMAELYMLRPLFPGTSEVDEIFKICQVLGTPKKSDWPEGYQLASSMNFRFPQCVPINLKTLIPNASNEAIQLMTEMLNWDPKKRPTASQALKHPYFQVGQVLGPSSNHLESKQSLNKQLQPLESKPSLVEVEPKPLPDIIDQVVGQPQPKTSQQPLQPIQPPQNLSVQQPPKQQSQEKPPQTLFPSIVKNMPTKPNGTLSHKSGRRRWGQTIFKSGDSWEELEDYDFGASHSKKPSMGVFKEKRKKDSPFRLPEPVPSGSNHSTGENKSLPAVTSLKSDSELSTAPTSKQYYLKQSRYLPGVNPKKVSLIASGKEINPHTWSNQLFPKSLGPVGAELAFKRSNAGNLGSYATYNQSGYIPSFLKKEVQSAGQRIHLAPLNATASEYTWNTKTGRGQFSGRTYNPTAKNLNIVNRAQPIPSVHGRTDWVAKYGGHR

[24] = molecular target: MAP/microtubule affinity-regulating kinase 3 (Homo sapiens) (UniProt P27448); assay: Inhibition of MARK3 (unknown origin) at 1 uM
Chain of MAP/microtubule affinity-regulating kinase 3 (Homo sapiens) (P27448 whole entry, looked up): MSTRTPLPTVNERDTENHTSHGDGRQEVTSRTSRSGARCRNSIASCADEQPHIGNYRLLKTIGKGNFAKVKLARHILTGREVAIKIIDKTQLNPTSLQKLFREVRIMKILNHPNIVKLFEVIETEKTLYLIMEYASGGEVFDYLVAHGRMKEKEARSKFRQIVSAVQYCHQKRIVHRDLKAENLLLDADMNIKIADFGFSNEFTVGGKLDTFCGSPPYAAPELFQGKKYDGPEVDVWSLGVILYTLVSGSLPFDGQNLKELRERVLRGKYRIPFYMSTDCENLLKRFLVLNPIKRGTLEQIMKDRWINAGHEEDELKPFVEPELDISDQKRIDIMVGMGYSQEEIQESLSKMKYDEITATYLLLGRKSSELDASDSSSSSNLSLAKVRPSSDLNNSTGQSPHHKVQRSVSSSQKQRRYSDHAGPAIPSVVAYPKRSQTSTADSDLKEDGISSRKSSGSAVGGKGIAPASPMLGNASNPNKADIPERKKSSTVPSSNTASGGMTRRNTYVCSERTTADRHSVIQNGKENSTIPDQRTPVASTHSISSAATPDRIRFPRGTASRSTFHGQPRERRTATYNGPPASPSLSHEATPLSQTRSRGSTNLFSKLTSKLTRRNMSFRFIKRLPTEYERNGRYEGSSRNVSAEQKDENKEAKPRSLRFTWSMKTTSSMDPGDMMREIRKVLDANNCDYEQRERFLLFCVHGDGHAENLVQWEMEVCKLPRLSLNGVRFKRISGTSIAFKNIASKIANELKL

[25] = molecular target: Dual specificity mitogen-activated protein kinase kinase 1 (Homo sapiens) (UniProt Q02750); assay: Inhibition of MEK1 (unknown origin) at 1 uM
[26] = molecular target: Mitogen-activated protein kinase kinase kinase 9 (Homo sapiens) (UniProt P80192); assay: Inhibition of MLK1 (unknown origin) at 1 uM
[27] = molecular target: Mitogen-activated protein kinase kinase kinase 10 (Homo sapiens) (UniProt Q02779); assay: Inhibition of MLK2 (unknown origin) at 1 uM
[28] = molecular target: MAP kinase-interacting serine/threonine-protein kinase 1 (Homo sapiens) (UniProt Q9BUB5); assay: Inhibition of MNK1 (unknown origin) at 1 uM
[29] = molecular target: SRSF protein kinase 3 (Homo sapiens) (UniProt Q9UPE1); assay: Inhibition of MSSK1 (unknown origin) at 1 uM
Chain of SRSF protein kinase 3 (Homo sapiens) (Q9UPE1 whole entry): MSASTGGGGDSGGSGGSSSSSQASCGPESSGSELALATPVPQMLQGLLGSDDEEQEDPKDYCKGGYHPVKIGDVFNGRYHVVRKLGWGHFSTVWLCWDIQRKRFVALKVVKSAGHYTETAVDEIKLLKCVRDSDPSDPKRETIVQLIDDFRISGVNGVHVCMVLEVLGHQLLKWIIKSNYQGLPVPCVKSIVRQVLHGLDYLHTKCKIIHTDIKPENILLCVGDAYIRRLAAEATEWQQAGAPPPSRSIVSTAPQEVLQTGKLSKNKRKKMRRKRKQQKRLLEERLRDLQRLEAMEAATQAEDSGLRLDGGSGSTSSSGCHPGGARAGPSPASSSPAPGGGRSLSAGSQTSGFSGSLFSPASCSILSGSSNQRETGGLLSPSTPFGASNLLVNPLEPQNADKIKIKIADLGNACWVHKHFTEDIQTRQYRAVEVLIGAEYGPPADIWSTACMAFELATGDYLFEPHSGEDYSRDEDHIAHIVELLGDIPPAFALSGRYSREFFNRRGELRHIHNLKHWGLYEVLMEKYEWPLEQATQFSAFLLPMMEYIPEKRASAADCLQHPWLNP

[30] = molecular target: Serine/threonine-protein kinase 3 (Homo sapiens) (UniProt Q13188); assay: Inhibition of MST2 (unknown origin) at 1 uM
[31] = molecular target: Serine/threonine-protein kinase Nek11 (Homo sapiens) (UniProt Q8NG66); assay: Inhibition of NEK11 (unknown origin) at 1 uM
[32] = molecular target: Serine/threonine-protein kinase Nek2 (Homo sapiens) (UniProt P51955); assay: Inhibition of NEK2 (unknown origin) at 1 uM
[33] = molecular target: Serine/threonine-protein kinase Nek7 (Homo sapiens) (UniProt Q8TDX7); assay: Inhibition of NEK7 (unknown origin) at 1 uM
Chain of Serine/threonine-protein kinase Nek7 (Homo sapiens) (Q8TDX7 whole entry, looked up): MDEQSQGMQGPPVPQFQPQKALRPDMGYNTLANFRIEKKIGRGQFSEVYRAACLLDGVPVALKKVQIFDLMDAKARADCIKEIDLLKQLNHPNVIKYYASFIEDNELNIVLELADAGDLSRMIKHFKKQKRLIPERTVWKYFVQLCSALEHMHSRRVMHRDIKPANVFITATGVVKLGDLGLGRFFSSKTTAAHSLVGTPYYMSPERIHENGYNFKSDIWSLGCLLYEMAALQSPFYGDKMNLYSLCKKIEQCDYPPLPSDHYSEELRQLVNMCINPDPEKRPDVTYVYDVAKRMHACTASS

[34] = molecular target: Serine/threonine-protein kinase PAK 4 (Homo sapiens) (UniProt O96013); assay: Inhibition of PAK4 (unknown origin) at 1 uM
[35] = molecular target: Protein kinase C epsilon type (Homo sapiens) (UniProt Q02156); assay: Inhibition of PKCepsilon (unknown origin)at 1 uM
[36] = molecular target: Testis-specific serine/threonine-protein kinase 1 (Homo sapiens) (UniProt Q9BXA7); assay: Inhibition of STK22D (unknown origin) at 1 uM
[37] = molecular target: Serine/threonine-protein kinase 25 (Homo sapiens) (UniProt O00506); assay: Inhibition of STK25 (unknown origin) at 1 uM
[38] = molecular target: Serine/threonine-protein kinase TAO2 (Homo sapiens) (UniProt Q9UL54); assay: Inhibition of TAOK2 (unknown origin) at 1 uM
[39] = molecular target: Dual specificity testis-specific protein kinase 1 (Homo sapiens) (UniProt Q15569); assay: Inhibition of TESK1 (unknown origin) at 1 uM
[40] = molecular target: TRAF2 and NCK-interacting protein kinase (Homo sapiens) (UniProt Q9UKE5); assay: Inhibition of TNIK (unknown origin) at 1 uM
[41] = molecular target: Serine/threonine-protein kinase ULK2 (Homo sapiens) (UniProt Q8IYT8); assay: Inhibition of ULK2 (unknown origin) at 1 uM
[42] = molecular target: Serine/threonine-protein kinase VRK2 (Homo sapiens) (UniProt Q86Y07); assay: Inhibition of VRK2 (unknown origin) at 1 uM
[43] = molecular target: Mitogen-activated protein kinase kinase kinase 20 (Homo sapiens) (UniProt Q9NYL2); assay: Inhibition of ZAK (unknown origin) at 1 uM
[44] = molecular target: Mitogen-activated protein kinase kinase kinase kinase 2 (Homo sapiens) (UniProt Q12851); assay: Inhibition of GCK (unknown origin) at 1 uM

Structure (SMILES): OCCOCc1cn(CCNc2nonc2/C(=N/O)Nc2ccc(F)c(Br)c2)nn1
- IC50 (CT26): 62 µM
- Cmax [1]: 1040 ng/mL
- k el [2]: 0.00205 s⁻¹
- half-life [3]: 5.66 min
- microsomal CLint [4]: 245 µL/min/mg
- half-life [5]: 21.2 min
- K [6]: 0.0161 min⁻¹
- fraction unbound [7]: 0.0498
- inhibition (Mus musculus): Active
- inhibition [8]: inactive
- inhibition [9]: inactive
- inhibition [10]: inactive
- inhibition [11]: inactive
- inhibition [12]: inactive
- inhibition [13]: inactive
- inhibition [14]: inactive
- inhibition [15]: inactive
- inhibition [16]: inactive
- inhibition [17]: inactive
- inhibition [18]: inactive
- inhibition [19]: inactive
- inhibition [20]: inactive
- inhibition [21]: inactive
- inhibition [22]: inactive
- inhibition [23]: inactive
- inhibition [24]: inactive
- inhibition [25]: inactive
- inhibition [26]: inactive
- inhibition [27]: inactive
- inhibition [28]: inactive
- inhibition [29]: inactive
- inhibition [30]: inactive
- inhibition [31]: inactive
- inhibition [32]: inactive
- inhibition [33]: inactive
- inhibition [34]: inactive
- inhibition [35]: inactive
- inhibition [36]: inactive
- inhibition [37]: inactive
- inhibition [38]: inactive
- inhibition [39]: inactive
- inhibition [40]: inactive
- inhibition [41]: inactive
- inhibition [42]: inactive
- inhibition [43]: inactive
- inhibition [44]: inactive
